Data: patent publication US8148100B2, “Mina53 assays” (ISIS Innovation Limited, priority 2005, dated 2012)

How the values were obtained:
Mina53(A26-V465) [1] = target: T1, Mina53(A26-V465) (Homo sapiens, UniProt Q8IUF8, A386T); experiment: [14C] labelled 2-OG decarboxylation assay (uncoupled 2-OG turnover, 14CO2 release); type: biochemical; conditions: for inhibition of uncoupled 2-OG turnover by small molecules (in words): final concentration of 1 mM; for 2OG turnover: truncated Mina53 A26-V465 with Fe(II) and ascorbate, 16 nm 2-OG initially present, 37° C., 20 minutes
T1 construct: A N-terminal truncation of Mina53 A26-V465 cloned into pNIC28-Bsa4 was supplied by the Structural Genomics Consortium Oxford; His-tag (polyhistidine, TEV-cleavable, from pNIC28-Bsa4) (N, cleaved yes); made in house; host or cells: E. coli BL21(DE3)
Procedure: Once purified full-length His-Mina53 had been obtained it was tested for 2-OG oxygenase activity. A standard assay for this family of enzymes involves the use of [^14C] labelled 2-OG co-substrate. Upon reaction, the ^14C label is released as 14CO2 gas (old FIG. 2).
The ^14CO2 gas is then trapped using a strong base and quantified by liquid scintillation. The level of uncoupled turnover of 2-OG oxygenases can be increased by the use of a reducing agent, e.g. ascorbate. Many other assays for 2-OG oxygenases are well known, e.g. those based on oxygen consumption, succinate production or oxidation of the “prime substrate” (McNeill et al (2005) Anal. Biochem. 336, 125-31; Sabourin & Bieber (1982) J. Biol. Chem. 257, 7460-7; and Cunliffe et al. (1986) Biochem. J. 240, 617-9).
As noted above, many of the enzymes in the family catalyse the decarboxylation of 2-OG in the absence of a suitable prime substrate, albeit at a reduced rate. This activity is sometimes termed as uncoupled turnover. The protocol used for the 2-OG assay decarboxylation is based on the method used to measure [^14CO2] release by α-ketoisocaproate oxygenase (Sabourin & Bieber (1982) J. Biol. Chem. 257, 7460-7). Standard assay conditions consisted of a total volume of 100 μl, 50 mM Tris-HCl pH 7.5, 4 mM ascorbate, 160 μM 2OG (5% 1-[^14C]), 80 μM FeSO4.6H2O, 0.48 mg·ml^−1 catalase, 10 μM Mina53. Four stocks were made: (a) Mina53 (b) Fe(II) (c) ascorbate and, (d) all other reagents. Assays were started by mixing components (a) to (d). A tube containing 200 μl hyamine hydroxide was added and the vial sealed. The assays were incubated at 37° C. for 20 minutes then quenched with methanol (200 μl). Reaction tubes were then left on ice for 30 mins to collect [^14CO2] gas, before the hyamine hydroxide was removed and treated with scintillant solution for counting (Beckman, LS6500). Assays were performed in triplicate unless otherwise stated. When potential small molecule inhibitors were added, they were mixed to stock (d) to a final concentration of 1 mM in Tris 50 mM, pH 7.9 buffer. To investigate inhibition of Mina53 by metals other than Fe(II), NiCl2 and ZnCl2 were added separately to the assay mixture to a final concentration of 80 μM.
Using this [^14C] labelled 2-OG assay (16 nm of 2-OG was initially present in the assay mixture), the level of uncoupled turnover for Mina53 was measured under standard catalytic conditions (16 nm of 2-OG was initially present in the assay mixture), in the absence of Fe(II), in the absence of ascorbate and in the presence on N-oxalylglycine (NOG) a ubiquitous inhibitor for the 2-OG dependent non-haem Fe(II) oxygenases^16.

Mina53(A26-V465) [2] = target: T1, Mina53(A26-V465); experiment: as above; type: biochemical; conditions: His-Mina53, absence of prime substrate
[3] = final assay concentration of 80 μM

T1 sequence (Q8IUF8 26-465 A386T): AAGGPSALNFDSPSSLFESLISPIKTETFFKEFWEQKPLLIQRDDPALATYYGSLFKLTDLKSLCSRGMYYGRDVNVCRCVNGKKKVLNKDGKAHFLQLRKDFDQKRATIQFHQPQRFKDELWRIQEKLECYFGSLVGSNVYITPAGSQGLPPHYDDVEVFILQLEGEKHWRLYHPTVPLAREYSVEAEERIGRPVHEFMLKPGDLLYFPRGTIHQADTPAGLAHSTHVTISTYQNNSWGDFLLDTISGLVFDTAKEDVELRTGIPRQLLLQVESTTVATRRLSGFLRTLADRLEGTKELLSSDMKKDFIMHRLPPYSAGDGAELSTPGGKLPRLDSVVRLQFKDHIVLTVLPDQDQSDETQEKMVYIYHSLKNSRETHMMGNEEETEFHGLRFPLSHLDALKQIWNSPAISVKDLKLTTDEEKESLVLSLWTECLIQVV

Molecule	inhibition of uncoupled 2-OG turnover by small molecules (in words) (Mina53(A26-V465) [1])	2OG turnover (Mina53(A26-V465) [1]; small molecule added at 1 mM) [nm]	decarboxylation of 2-OG by His-Mina53 in the presence of inhibitor (in words) (Mina53(A26-V465) [2])	inhibition of Mina53 mediated oxidation of 2OG by metals other than Fe(II) (in words) (Mina53(A26-V465) [1]; [3])	2OG turnover (Mina53(A26-V465) [1]; metal salt added at 80 μM) [nm]	relative inhibitory potency, Ni versus Zn (in words) (Mina53(A26-V465) [1]; [3])
O=C(O)CNC(=O)c1nc(Cl)c2ccccc2c1O [BB231]	did not significantly reduce it	3.18 ± 0.03				
O=C(O)C(=O)NC(Cc1ccccc1)C(=O)O [NOFD, N-oxalyl D-phenylalaninie]	did not significantly reduce it	3.86 ± 0.05				
O=C(O)CNC(=O)C(=O)O [NOG, N-oxalylglycine]	inhibit uncoupled 2-OG turnover	0.47 ± 0.12	inhibited			
[Cl][Ni][Cl] [NiCl2]				inhibit 2OG turnover	2 ± 0.23	
CCC(=O)C1C(=O)CC(C(=O)O)CC1=O (stereo not shown) [Prohexadione, prohexadione]	inhibit uncoupled 2-OG turnover	0.17 ± 0.12				
[Cl-].[Cl-].[Zn+2] [ZnCl2]				inhibit 2OG turnover	0.93 ± 0.17	more potent inhibitor
fumarate	inhibit uncoupled 2-OG turnover	0.58 ± 0.09				
